In experiment [1] the test system is purified enzyme MTA (aminotransferase). The experiment is described as follows: Specificity for amino acceptor, (S)-α-phenethylamine as donor (Examples 5 and 6). It counts as biochemical, Pseudomonas fluorescens KNK08-18. Conditions: for Activity as amino acceptor (in words): donor (S)-α-phenethylamine. On the procedure:
The purified enzyme obtained in Example 1 was analyzed in terms of substrate specificity regarding amino acceptors. In 20 μL of the purified Enzyme, 380 μL of a 0.1M potassium phosphate buffer containing 14 mM of (S)-α-phenethylamine and 14 mM of a ketone compound of various type was added. After the mixture was reacted at 30° C. for 1 hour, 20 μL of 3N hydrochloric acid was added therein to stop the reaction. Results of the analysis are shown in Table 3, in which the relative activities are shown where the activity with pyruvic acid as the amino acceptor is 100.
(§1) [Analysis Conditions of High-Performance Liquid Chromatography]
(§2) • Column: Cosmosil 5C8-MS (Nacalai Tesque Inc.) • Carrier: 30 mM potassium phosphate buffer (pH 2.5)/acetonitrile/methanol=4/1/1 (by volume) • Flow Rate: 0.9 mL/min • Detection: 254 nm
The purified enzyme obtained in Example 1 was analyzed in terms of substrate specificity regarding amino acceptors in the same manner as in Example 5.

The test system is the same in experiment [2]. The experiment is described as follows: Specificity for amino donor, 7-methoxy-2-tetralone as amino acceptor (Example 3). It counts as biochemical, Pseudomonas fluorescens KNK08-18. To be noted: for Relative Activity (%): amino donor varied, 14 mM (racemic 28 mM), acceptor 14 mM 7-methoxy-2-tetralone, 30° C., 1 hour, activity with (S)-α-phenethylamine is 100. How it is done: In 20 μL of the purified Enzyme, 380 μL of a 0.1M potassium phosphate buffer containing 14 mM of 7-methoxy-2-tetralone and 14 mM (in case of the racemic amine compound, 28 mM)) of an amine compound of various type was added. After the mixture was reacted at 30° C. for 1 hour, 20 μL of 3N hydrochloric acid was added therein to stop the reaction. The reaction solution thus obtained was analyzed via high-performance liquid chromatography so as to quantitatively analyze 7-methoxy-2-aminotetralin thus obtained. Thereby, the amino group transfer activities with the various amino compounds were analyzed.
as §1, §2

Experiment [3] has as its system 4-Aminobutylic Acid: 2-Ketoglutaric Acid Transaminase. Conditions: amino group receptor 2-ketoglutaric acid; values from the literature; cited from earlier work.
For the next experiment, the system named is MTA (present invention). The experiment is described as follows: Substrate specificity, comparison with ω-amino acid transaminase (Example 7), Enzyme A. Type of experiment: biochemical, Pseudomonas fluorescens KNK08-18. Conditions: for Reactivity as amino donor (in words): Enzyme A (MTA), receptor pyruvic acid or 2-ketoglutaric acid; for Relative activity, Enzyme A: donor 14 mM, activity with (S)-α-phenethylamine is 100. On the procedure: The purified enzyme obtained in Example 1 was analyzed in terms of its reactivity to typical substrates of ω-amino acid transaminase. Firstly, 20 μL of a purified enzyme solution having a protein concentration of 0.2 mg/mL was added to 380 μL of a substrate solution having the following composition. After carrying out reaction at 30° C. for 1 hour therein, 20 μL of 3N hydrochloric acid was added therein to stop the reaction. Then, into 20 μL of the resultant reaction mixture, a 0.2M sodium carbonate aqueous solution of 80 μL and an acetone solution of 200 μL containing dabsyl chloride by 3.3 mg/mL were added. Then, the resultant mixture was reacted at 70° C. for 10 min. After 20 μL of acetic acid was added therein with stirring. The reaction mixture thus obtained was analyzed by high-performance liquid chromatography thereby to quantitatively analyze dabsylated alanine or […]. Results of the analysis are shown in Table 5, in which the relative activities are shown where the activity with (S)-α-phenethylamine as the amino donor is 100. In Table 5, the values of activities of ω-amino acid:pyruvic acid transaminase and 4-amino butyric acid: 2-ketoglutaric acid transaminase are from the literatures “Agric. Biol. Chem. 41, 1701-1706 (1977), Arch. Biochem. Biophys. 200, 156-164 (1980)”.
(§3) [Substrate Solution Composition]
Pyruvic acid or 2-ketoglutaric acid 14 mM
(§4) Pyridoxal phosphate 0.02 mM
(§5) Potassium Phosphate Buffer (pH 7.5) 0.1M
(§6) [High-Performance Liquid Chromatography Analysis Conditions]
(§7) Column: Deverosil ODS-HG-3 (Nomura Chemical Co., Ltd.)
(§8) Carrier: Acetonitrile/0.045M acetate buffer (pH 4.1)=35/65 (by volume)

The subject of experiment [4] is purified enzyme MTA (aminotransferase). In words: Specificity for amino donor, pyruvic acid as acceptor, dabsylated alanine quantified (Example 4). Type of experiment: biochemical, Pseudomonas fluorescens KNK08-18. Conditions: for Amino group transfer activity as amino donor (in words): acceptor pyruvic acid; for Relative Activity (%): amino donor varied, 14 mM, acceptor 14 mM pyruvic acid, pH 7.5, 30° C., 1 hour, activity with (S)-α-phenethylamine is 100. How it is done: The amino group transfer activity measurement is carried out as follows: Firstly, 20 μL of a purified enzyme solution having a protein concentration of 0.2 mg/mL is added to 380 μL of a substrate solution having the following composition. After carrying out reaction at 30° C. for 1 hour therein, 20 μL of 3N hydrochloric acid is added therein to stop the reaction. Then, into 20 μL of the resultant reaction mixture, a 0.2M sodium carbonate aqueous solution of 80 μL and an acetone solution of 200 μL containing dabsyl chloride by 3.3 mg/mL are added. Then, the resultant mixture is reacted at 70° C. for 10 min. After 20 μL of acetic acid is added therein with stirring. The reaction mixture thus obtained is analyzed by high-performance liquid chromatography thereby to quantitatively analyze dabsylated alanine.
The purified enzyme obtained in Example 1 was analyzed in terms of its reactivity to typical substrates of ω-amino acid transaminase. Firstly, 20 μL of a purified enzyme solution having a protein concentration of 0.2 mg/mL was added to […] of a substrate solution having the following composition. After carrying out reaction at 30° C. for 1 hour therein, 20 μL of 3N hydrochloric acid was added therein to stop the reaction. Then, into 20 μL of the resultant reaction mixture, a 0.2M sodium carbonate aqueous solution of 80 μL and an acetone solution of 200 μL containing dabsyl chloride by 3.3 mg/mL were added. Then, the resultant mixture was reacted at 70° C. for 10 min. After 20 μL of acetic acid was added therein with stirring. The reaction mixture thus obtained was analyzed by high-performance liquid chromatography thereby to quantitatively analyze dabsylated alanine. Results of the analysis are shown in Table 2, which the amino group transfer activities are shown as relative activities where the activity with (S)-α-phenethylamine as the amino donor is 100.
as §3, §4, §5, §6, §7, §8

Experiment [5] addresses T1, ω-Amino Acid: Pyruvic Acid Transaminase (Pseudomonas putida, UniProt P28269).
T1 sequence (P28269 1-449): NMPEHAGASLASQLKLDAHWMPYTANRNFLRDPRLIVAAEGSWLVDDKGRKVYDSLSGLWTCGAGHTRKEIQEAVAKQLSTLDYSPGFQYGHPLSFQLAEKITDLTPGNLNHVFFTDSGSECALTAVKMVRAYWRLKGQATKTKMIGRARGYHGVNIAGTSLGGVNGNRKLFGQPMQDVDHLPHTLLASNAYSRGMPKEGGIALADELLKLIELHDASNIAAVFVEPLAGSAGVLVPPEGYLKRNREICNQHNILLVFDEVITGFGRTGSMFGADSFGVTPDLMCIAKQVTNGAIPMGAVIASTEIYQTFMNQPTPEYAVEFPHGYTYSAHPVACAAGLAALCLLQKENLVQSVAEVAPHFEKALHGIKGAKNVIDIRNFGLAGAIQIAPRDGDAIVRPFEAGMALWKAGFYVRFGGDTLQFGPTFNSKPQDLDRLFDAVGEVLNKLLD
To be noted: amino group receptor pyruvic acid; values from the literature; cited from earlier work.

Where [6] appears, read: Table 3: amino acceptor varied, 14 mM, donor 14 mM (S)-α-phenethylamine, 30° C., 1 hour, activity with pyruvic acid is 100.
The mark [7] stands for this setting: Table 4: amino acceptor varied, same manner as in Example 5, donor (S)-α-phenethylamine.
Setting [8] is: amino group receptor pyruvic acid 14 mM.

“Also recorded” adds a separate entry of the source.

Take `O=Cc1ccccc1` [Benzaldehyde]: the “Relative Activity (%)” value in experiment [1] (setting [6]) stood at 2%. For the molecule `CCCN` [n-propylamine], in experiment [2], the “Relative Activity (%)” value is reported as 6%. In the case of `NCCCC(=O)O` [4-Aminobutyric Acid], the “Relative activity, Enzyme C” value in experiment [3] is on record as 100. Moreover, in the experiment with MTA (present invention), the “Reactivity as amino donor (in words)” value is “not reactive”. For the same molecule, the “Relative activity, Enzyme A” value with MTA (present invention) (amino group receptor 2-ketoglutaric acid 14 mM) is reported as 0. Regarding `CCCC=O` [Butylaldehyde], in experiment [1] (setting [6]), the “Relative Activity (%)” value was 18%. Consider `O=C1CCc2ccccc2C1` [2-Tetralone], for which the “Relative Activity (%)” value in experiment [1] (setting [7]) came to 17%. The same measure, in the same setting: the figure for `CC(=O)CCc1ccccc1` [Benzylacetone] is 33%.

Regarding `CCN` [n-ethylamine], the “Relative Activity (%)” value in experiment [2] is on record as 6%. As for `NCCCCC(N)C(=O)O` (racemic) [DL-lysine], in experiment [4], the “Amino group transfer activity as amino donor (in words)” value (from here on “Amino group transfer activity”) is “no activity; also recorded: substantially inactive” and the “Relative Activity (%)” value worked out at 0%. Moreover, the “Relative Activity (%)” value in experiment [2] was determined as 0%. As for `CCCCC(N)CC` (racemic) [±3-heptylamine], the “Relative Activity (%)” value in experiment [2] is listed as 19%. In the case of `CCC(=O)C(=O)O` [2-Ketobutyric Acid], the “Relative Activity (%)” value in experiment [1] (setting [6]) was determined as 2%. For the molecule `NCCc1ccccc1` [β-phenethylamine], the “Relative Activity (%)” value in experiment [2] came to 22%.

`NCc1ccccc1` [benzylamine]: the “Relative Activity (%)” value in experiment [2] is given as 35%.

With `CC(=O)c1cccc(C(F)(F)F)c1` [3′-Trifluoromethylacetophenone], the “Relative Activity (%)” value in experiment [1] (setting [7]) was 40%. On the same count and under the same terms, the figure for `CC(=O)c1cnccn1` [Acetylpyrazine] is 100%. With `O=CC(=O)O` [Glyoxylic Acid], in experiment [1] (setting [6]), the “Relative Activity (%)” value is 99%. Further, the “Activity as amino acceptor (in words)” value in experiment [1] was “high activity; also recorded: active”. Turning to `COc1ccc(CC(C)N)cc1OC` (racemic) [±3′,4′-dimethoxyamphetamine], the “Relative Activity (%)” value in experiment [2] is 88%. The same measure, in the same setting: the value for `CCC(C)N` (racemic) [±2-butylamine] was 48%. `CC(=O)c1ccc(Cl)cc1` [4′-Chloroacetophenone]: in experiment [1] (setting [7]), the “Relative Activity (%)” value is 30%. Take `CC(C)CN` [isobutylamine]: the “Relative Activity (%)” value in experiment [2] was found to be 8%. As for `CC(=O)c1cccnc1` [3-Acetylpyridine], the “Relative Activity (%)” value in experiment [1] (setting [7]) is on record as 10%. Same read-out and setting: the figure for `O=C1CCN(Cc2ccccc2)C1` [1-Benzyl-3-Pyrrolidinone] is 20%; for `COc1ccc2c(c1)CC(=O)CC2` [7-Methoxy-2-Tetralone] it is 10%. Take `CCCCCN` [n-amylamine]: in experiment [2], the “Relative Activity (%)” value is recorded as 11%. On the same count and under the same terms, the figure for `CCCCN` [n-butylamine] is 7%.

Regarding `CCCC(=O)C(=O)O` [2-Keto-n-Valeric Acid], the “Relative Activity (%)” value in experiment [1] (setting [6]) turned out to be 0.1%. Regarding `O=C(O)CCC(=O)C(=O)O` [2-Ketoglutaric Acid], in experiment [1] (setting [6]), the “Relative Activity (%)” value was 0%. The “Activity as amino acceptor (in words)” value in experiment [1] is “no activity”. Consider `COc1cccc(C(C)=O)c1` [3′-Methoxyacetophenone], for which the “Relative Activity (%)” value in experiment [1] (setting [7]) is given as 10%.

For `C[C@H](N)C(=O)O` [L-alanine], in experiment [2], the “Relative Activity (%)” value is recorded as 20%. Still for that read-out and setting: the figure for `CCCCCC(C)N` (racemic) [±2-heptylamine] is 93%. As to `CCCCCC(C)=O` [2-Heptane], the “Relative Activity (%)” value in experiment [1] (setting [7]) came out at 7%.

As to `CC(=O)C(=O)O` [Pyruvic Acid, reference compound], in experiment [1] (setting [6]), the “Relative Activity (%)” value came to 100%. Also, the “Activity as amino acceptor (in words)” value in experiment [1] is reported as “high activity; also recorded: active”. On to `NCCCCN` [Putrescine], for which, in experiment [4], the “Amino group transfer activity” value is “no activity; also recorded: substantially inactive” and the “Relative Activity (%)” value turned out to be 0%. Besides, the “Relative activity, Enzyme B” value in experiment [5] is 18. The “Reactivity as amino donor (in words)” value with MTA (present invention) is listed as “not reactive”. In addition, the “Relative activity, Enzyme A” value in the experiment with MTA (present invention) (setting [8]) is given as 0.

For `NC1CCCCC1` [cyclohexylamine], the “Relative Activity (%)” value in experiment [2] is given as 22%. Take `CCCC(C)N` (racemic) [±2-pentylamine]: the “Relative Activity (%)” value in experiment [2] is on record as 60%.

Turning to `COCC(C)=O` [Methoxypropanone], the “Relative Activity (%)” value in experiment [1] (setting [7]) was found to be 13%.

On to `CCC=O` [Propionaldehyde], for which, in experiment [1] (setting [6]), the “Relative Activity (%)” value came to 5%. For `CC(C)N` [isopropylamine], the “Relative Activity (%)” value in experiment [2] is listed as 10%.

For the molecule `CC(=O)c1cccc(O)c1` [3′-Hydroxyacetophenone], in experiment [1] (setting [7]), the “Relative Activity (%)” value was 3%.

Turning to `CC(N)CCc1ccccc1` (racemic) [±3-amino-1-phenylbutane], the “Relative Activity (%)” value in experiment [2] stood at 90%. For `C[C@H](N)c1ccccc1` [(S)-α-phenethylamine, reference compound], the “Amino group transfer activity” value in experiment [4] was “active”; in experiment [2] (acceptor 7-methoxy-2-tetralone), “especially high activity”. Also, the “Relative Activity (%)” value in experiment [4] and in experiment [2] was 100% throughout. Moreover, the “Reactivity as amino donor (in words)” value in the experiment with MTA (present invention) is given as “highly active”. Also, the “Relative activity, Enzyme A” value in the experiment with MTA (present invention) (setting [8]) is 100.

The values are drawn from patent publication US8431378B2, “Aminotransferase, gene encoding the same, and methods of using them” (Kaneka Corporation, priority 2005, dated 2013).
